28 compounds from US20140256771A1, “COMPOUNDS THAT MODULATE INTRACELLULAR CALCIUM” (CalciMedica, Inc., priority 2011, published 2014) can be followed below.

Where two headings read alike, the source gives them in different places. Where only a bound is given, the exact number is not on record here.

For one assay, the system named is RBL-2H3 cells. The assay can be described thus: Fluorescence-based assay of store-operated calcium entry in RBL-2H3 cells. Conditions: thapsigargin store depletion, 50% inhibition of Upslope; for IC50: Rattus norvegicus, RBL-2H3, read-out: RBL-2H3 (IC50, μmol). Set-up: key to RBL-2H3 (IC50, μmol): A < 0.6 μmol; 0.6 μmol ≦ B ≦ 1.2 μmol; C > 1.2 μmol; — = no fit. It is filed as cell-based, rat. As to the method: B. Fluorescence-based Assay of Store-Operated Calcium Entry in RBL-2H3Cells.
RBL-2H3 cells are obtained from ATCC and maintained in complete medium with 10% FBS at 37° C./6% CO2.
The day prior to performing the assay, RBL-2H3 cells are plated in 50 μL of complete medium in a 384 well plate. Cells are grown at 37° C./6% CO2 overnight and grow to 50-60% confluence by the next day. On the assay day, 1.5 μM Fluo-4-AM dye (Invitrogen) in complete medium is added and incubated for 1 hour at RT. Cells are washed twice in Ca^2+-free HBSS buffer and 35 μL Ca^2+-free HBSS buffer is added to each well. 10 μL of a test compound prepared in a Ca^2+-free HBSS solution at 4.5× of the desired concentration is added to a well and incubated for 5 minutes at RT. 10 μL of thapsigargin prepared in a Ca^2+-free HBSS solution at 5.5× of the desired concentration (5.5 uM) is added to each well and incubated for an additional 25 minutes. The initial baseline fluorescence signal is measured with a FLIPR^384 (Molecular Devices) plate reader. 5 μL of 12× calcium in HBSS (12 mM) is added and changes in cellular fluorescence are measured with the FLIPR^384 plate reader. In each well, the change in the fluorescent signal as a function of time due to calcium entry into the cell is determined by calculating the difference between the fluorescent signal measured 7 seconds after calcium addition and the initial baseline fluorescence signal at time zero (t=0). This parameter is designated Upslope. The IC50 value is calculated as the concentration at which 50% of the Upslope is inhibited.

The next assay deals with T1, Orai1/STIM1 (Homo sapiens, UniProt Q96D31).
T1 construct: expressed in transfected cells; host or cells: HEK-293
Description: Fluorescence-based assay of store-operated calcium entry in Orai1/STIM1 stable cells. In kind it is cell-based. Particulars: HEK-293 cells stably expressing human STIM1 and Orai1, 50% inhibition of Peak-Basal fluo-4 signal; for IC50: read-out: Orai1/STIM1 (IC50, μmol). As to the method: A. Fluorescence-based Assay of Store-Operated Calcium Entry in Orai1/STIM1 Stable Cells.
Cells stably expressing recombinant human STIM1 and Orai1 are generated by transfecting a human Orai1 expression plasmid (pcDNA3.1-Orai1-cmyc) into HEK-293 cells stably overexpressing human STIM1 (Roos et al. 2005 JCB 169(3): 435-445). Colonies of cells stably expressing both STIM1 and Orai1 proteins are selected and then subcloned by limiting dilution. Cells were cultured at 37° C./6% CO2 in complete medium with 10% FBS and appropriate selection markers.
The day prior to performing the assay Orai1/STIM1 stable cells are plated in 50 μL of complete medium at 90-95% confluence in a 384 well plate. Cells are grown at 37° C./6% CO2 overnight. On the day of the assay, 1.5 μM fluo-4-AM (Invitrogen) in complete medium is added to the cells, which are then incubated for 1 hour at RT. Cells are washed once in Ca^2+-free HBSS (Hank's buffered saline solution) and 35 μl of Ca^2+-free HBSS is added to each well. Test compounds are added to wells in a 10 μL Ca^2+-free HBSS solution, prepared at 4.5× the desired final concentration, and incubated for 30 minutes at RT. The initial baseline fluorescence signal is then measured with a FLIPR^384 (Molecular Devices) plate reader. Calcium entry is initiated by adding 5 μl of 10× CaCl2 (10 mM) in HBSS, and changes in cellular fluorescence are measured with the FLIPR^384 plate reader. In each well, the magnitude of the fluorescence signal as a result of calcium entry into the cell is determined by calculating the difference between the peak fluorescence signal measured after calcium addition and the initial baseline fluorescence signal (designated Peak-Basal). IC50 values are typically calculated as the concentration that inhibited 50% of the Peak-Basal signal (Table A).

T1 sequence (Q96D31 whole entry): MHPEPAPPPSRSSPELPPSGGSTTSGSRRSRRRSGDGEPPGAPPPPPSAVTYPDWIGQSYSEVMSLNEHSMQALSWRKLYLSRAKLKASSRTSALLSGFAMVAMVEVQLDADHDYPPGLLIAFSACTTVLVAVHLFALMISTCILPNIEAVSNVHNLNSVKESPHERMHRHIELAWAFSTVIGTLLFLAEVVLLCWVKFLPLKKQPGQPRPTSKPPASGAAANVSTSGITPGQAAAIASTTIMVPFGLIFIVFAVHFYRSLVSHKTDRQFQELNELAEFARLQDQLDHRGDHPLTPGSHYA

As to `Cn1nc(C(F)(F)F)cc1-c1ccc(NC(=O)c2cncc(F)c2)cc1F`, the values for the IC50 with RBL-2H3 cells (Table iv) and at Orai1/STIM1 (Table iv) were 600 to 1200 nM and less than 600 nM, respectively.

As to `Cc1cccc(F)c1C(=O)Nc1ccc(-c2cc(C(F)(F)F)nn2C)c(F)c1`, the IC50 in the assay on RBL-2H3 cells (Table iv) and at Orai1/STIM1 (Table iv) was less than 600 nM each time.

On to `Cc1ncsc1C(=O)Nc1ccc(-c2cc(C(F)(F)F)nn2C)c(F)c1`, for which the IC50 in the assay with RBL-2H3 cells (Table iv) and on Orai1/STIM1 (Table iv) was less than 600 nM throughout.

`Cc1ccccc1CNc1ccc(-c2cn(C(F)F)nc2C)c(F)c1`: the IC50 in the assay on RBL-2H3 cells (Table iii) was less than 600 nM; at Orai1/STIM1 (Table iii) it was 600 to 1200 nM.

For `Cc1nn(C(F)F)cc1-c1ccc(NCc2c(F)ccc(F)c2F)cc1`, the IC50 with RBL-2H3 cells (Table iii) and at Orai1/STIM1 (Table iii) was less than 600 nM throughout.

Take `Cn1nc(C(F)(F)F)cc1-c1ccc(NCc2c(Cl)cnn2C)cc1`: the IC50 was less than 600 nM in the assay on RBL-2H3 cells (Table iii) and 600 to 1200 nM at Orai1/STIM1 (Table iii).

For `Cn1nc(C(F)(F)F)cc1-c1c(F)cc(NC(=O)c2ccccc2F)cc1F`, the IC50 in the assay with RBL-2H3 cells (Table iv) and on Orai1/STIM1 (Table iv) was less than 600 nM in each case.

For the compound `Cn1nc(C(F)(F)F)cc1-c1ccc(NC(=O)c2ccccc2F)c(F)c1`, the “RBL-2H3 (IC50, μmol)” value in the assay on RBL-2H3 cells (Table iv) is listed as “—”. For the same compound, on Orai1/STIM1 (Table iv), the “Orai1/STIM1 (IC50, μmol)” value is reported as “Max inh. <50%”.

For `CCn1nc(C(F)(F)F)cc1-c1ccc(NCc2ccccc2F)cc1F`, the IC50 in the assay on RBL-2H3 cells (Table iii) and on Orai1/STIM1 (Table iii) was less than 600 nM in each case.

Turning to `Cc1cc(F)ccc1C(=O)Nc1ccc(-c2cc(C(F)(F)F)nn2C)c(F)c1`, the IC50 with RBL-2H3 cells (Table iv) and at Orai1/STIM1 (Table iv) was less than 600 nM throughout.

On to `Cn1nc(C(F)(F)F)cc1-c1ccc(NCc2c(F)cncc2F)cc1`, for which the IC50 in the assay with RBL-2H3 cells (Table iii) and on Orai1/STIM1 (Table iii) was less than 600 nM in each case.

In the case of `Cc1cc2c(cc1-c1ccc(NCc3c(F)cncc3F)cc1F)OC(F)(F)O2`, the IC50 is less than 600 nM with RBL-2H3 cells (Table iii) and 600 to 1200 nM on Orai1/STIM1 (Table iii).

For the compound `Cc1nc(C(F)(F)F)cn1-c1ccc(NC(=O)c2c(F)cc(F)cc2F)cc1F`, the IC50 with RBL-2H3 cells (Table iv) was less than 600 nM; at Orai1/STIM1 (Table iv), more than 1200 nM.

In the case of `Cn1nc(C(F)(F)F)cc1-c1ccc(NCc2c(F)cccc2F)cc1`, the IC50 with RBL-2H3 cells (Table iii) and on Orai1/STIM1 (Table iii) was less than 600 nM in each case.

Take `Cn1nc(C(F)(F)F)cc1-c1c(F)cc(NCc2c(F)cccc2F)cc1F`: the IC50 is less than 600 nM with RBL-2H3 cells (Table iii) and 600 to 1200 nM on Orai1/STIM1 (Table iii).

In the case of `Cc1nn(C(F)F)cc1-c1ccc(NC(=O)c2ccccc2F)cc1`, the IC50 in the assay on RBL-2H3 cells (Table iv) and on Orai1/STIM1 (Table iv) was 600 to 1200 nM in each case.

`Cc1ccccc1C(=O)Nc1ccc(-c2cc(C(F)(F)F)nn2C)c(F)c1`: the IC50 in the assay on RBL-2H3 cells (Table iv) and on Orai1/STIM1 (Table iv) was less than 600 nM throughout.

For the compound `Cc1cc(C(F)(F)F)nn1-c1ccc(NCc2c(F)ccc(F)c2F)cc1`, the IC50 with RBL-2H3 cells (Table iii) and at Orai1/STIM1 (Table iii) was less than 600 nM throughout.

In the case of `Cc1cc(F)ccc1C(=O)Nc1ccc(-n2nc(C(F)(F)F)cc2C)c(F)c1`, the values for the IC50 with RBL-2H3 cells (Table iv) and at Orai1/STIM1 (Table iv) were less than 600 nM and 600 to 1200 nM, respectively.

Regarding `Cc1cc(F)ccc1C(=O)Nc1ccc(-n2cc(C(F)(F)F)nc2C)c(F)c1`, the IC50 is less than 600 nM with RBL-2H3 cells (Table iv) and more than 1200 nM on Orai1/STIM1 (Table iv).

Turning to `Cc1nc(C(F)(F)F)cn1-c1ccc(NCc2ccccc2F)cc1`, the IC50 in the assay on RBL-2H3 cells (Table iii) and at Orai1/STIM1 (Table iii) was less than 600 nM each time.

With `Cc1cnccc1CNc1ccc(-c2cc(C(F)(F)F)nn2C)c(F)c1`, the IC50 in the assay on RBL-2H3 cells (Table iii) is less than 600 nM; at Orai1/STIM1 (Table iii), 600 to 1200 nM.

On to `Cc1cc2c(cc1-c1ccc(NCc3cncc(F)c3)cc1)OC(F)(F)O2`, for which the IC50 in the assay on RBL-2H3 cells (Table iii) was less than 600 nM; on Orai1/STIM1 (Table iii), 600 to 1200 nM.

Regarding `Cn1nc(C(F)(F)F)cc1-c1ccc(NC(=O)c2c(F)cncc2F)c(F)c1`, the IC50 with RBL-2H3 cells (Table iv) and at Orai1/STIM1 (Table iv) was less than 600 nM each time.

Regarding `Cc1ccccc1C(=O)Nc1ccc(-c2nc(C(F)(F)F)sc2C)cc1`, the IC50 in the assay with RBL-2H3 cells (Table iv) and at Orai1/STIM1 (Table iv) was less than 600 nM throughout.

As for `Cc1nnsc1C(=O)Nc1ccc(-n2nc(C(F)(F)F)cc2C)cc1`, the results for the IC50 with RBL-2H3 cells (Table iv) and at Orai1/STIM1 (Table iv) were less than 600 nM and 600 to 1200 nM, respectively.

In the case of `Cc1cccc(F)c1C(=O)Nc1ccc(-c2nc(C(F)(F)F)sc2C)cc1`, the IC50 in the assay with RBL-2H3 cells (Table iv) and at Orai1/STIM1 (Table iv) was less than 600 nM in each case.

As for `Cc1cc2c(cc1-c1ccc(NC(=O)c3scnc3C)cc1)OC(F)(F)O2`, the IC50 with RBL-2H3 cells (Table iv) was less than 600 nM; on Orai1/STIM1 (Table iv), 600 to 1200 nM.
